For 1 molecule, inhibition and remaining activity results are on record in patent US9492471B2, “Methods of treating a disease or disorder associated with Bruton'S Tyrosine Kinase” (Celgene Avilomics Research, Inc., priority 2013, dated 2016).

As a reminder, the inhibition is the change of the read-out against control, counted positive when it falls.

What all share (test): HotSpot kinase profiling
Common to all, as to type: biochemical

For assay [1], the target named is T1, Haspin (Homo sapiens, UniProt Q8TF76).
T1 construct: purchased Reaction Biology Corp
T1 sequence (Q8TF76 1-798): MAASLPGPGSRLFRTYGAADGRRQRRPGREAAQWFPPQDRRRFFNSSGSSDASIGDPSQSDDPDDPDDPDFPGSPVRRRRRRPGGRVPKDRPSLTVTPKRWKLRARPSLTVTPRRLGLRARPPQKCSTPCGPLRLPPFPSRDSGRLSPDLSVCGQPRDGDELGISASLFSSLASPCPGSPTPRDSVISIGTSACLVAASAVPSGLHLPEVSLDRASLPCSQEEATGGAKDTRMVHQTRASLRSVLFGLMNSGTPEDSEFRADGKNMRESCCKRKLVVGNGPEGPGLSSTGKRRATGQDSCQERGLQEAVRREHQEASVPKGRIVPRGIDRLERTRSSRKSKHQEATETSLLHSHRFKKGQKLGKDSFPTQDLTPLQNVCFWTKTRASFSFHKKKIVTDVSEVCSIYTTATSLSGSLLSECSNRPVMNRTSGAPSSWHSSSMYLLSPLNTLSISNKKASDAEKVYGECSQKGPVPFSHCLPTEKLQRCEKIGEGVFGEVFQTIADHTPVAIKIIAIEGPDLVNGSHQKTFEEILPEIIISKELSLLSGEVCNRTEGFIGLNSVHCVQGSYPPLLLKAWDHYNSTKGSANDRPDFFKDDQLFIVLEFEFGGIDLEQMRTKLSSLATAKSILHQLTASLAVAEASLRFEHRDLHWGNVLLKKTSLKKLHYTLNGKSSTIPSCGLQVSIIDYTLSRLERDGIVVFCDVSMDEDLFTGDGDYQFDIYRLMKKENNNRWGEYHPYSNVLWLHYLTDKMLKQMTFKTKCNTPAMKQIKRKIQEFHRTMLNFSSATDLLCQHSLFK
The procedure, abridged: (§1)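 Percent inhibition, averaged when run more than once and referenced to a DMSO negative control, came from a radioactive filter-binding readout on P81 paper. Reactions of kinase with freshly made substrate and cofactors ran for 2 h at room temperature.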

Assay [2] concerns the target T2, P38b/MAPK11 (Homo sapiens, UniProt Q15759).
T2 construct: purchased Reaction Biology Corp
The procedure, abridged:
as §1

The target in assay [3] is T3, CDK1/cyclin B (Homo sapiens, UniProt P06493).
T3 construct: purchased Reaction Biology Corp
T3 sequence (P06493 whole entry): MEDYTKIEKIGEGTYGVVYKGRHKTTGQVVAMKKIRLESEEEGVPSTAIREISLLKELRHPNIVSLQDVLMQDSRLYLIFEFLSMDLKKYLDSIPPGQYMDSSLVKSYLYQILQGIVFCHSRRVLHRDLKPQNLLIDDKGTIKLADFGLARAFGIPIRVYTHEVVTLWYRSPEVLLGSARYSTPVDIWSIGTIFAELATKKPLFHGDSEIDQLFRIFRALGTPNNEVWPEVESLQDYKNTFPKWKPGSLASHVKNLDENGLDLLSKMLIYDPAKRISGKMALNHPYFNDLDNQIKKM
T3 sequence (P14635 whole entry partner): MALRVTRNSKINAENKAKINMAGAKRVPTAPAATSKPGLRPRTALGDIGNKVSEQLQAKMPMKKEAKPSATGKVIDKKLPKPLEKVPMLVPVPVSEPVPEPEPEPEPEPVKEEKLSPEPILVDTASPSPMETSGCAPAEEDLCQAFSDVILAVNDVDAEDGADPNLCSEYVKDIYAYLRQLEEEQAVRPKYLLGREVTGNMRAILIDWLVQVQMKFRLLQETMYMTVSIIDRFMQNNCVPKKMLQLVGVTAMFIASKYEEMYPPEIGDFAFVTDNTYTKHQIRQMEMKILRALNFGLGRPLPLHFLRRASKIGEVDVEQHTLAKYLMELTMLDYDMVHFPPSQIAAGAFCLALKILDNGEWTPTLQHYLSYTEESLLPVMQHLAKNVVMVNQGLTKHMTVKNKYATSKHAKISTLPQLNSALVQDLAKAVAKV
The procedure, abridged: as §1

The target of assay [4] is T4, PAK3 (Homo sapiens, UniProt O75914).
T4 construct: purchased Reaction Biology Corp
T4 sequence (O75914 whole entry): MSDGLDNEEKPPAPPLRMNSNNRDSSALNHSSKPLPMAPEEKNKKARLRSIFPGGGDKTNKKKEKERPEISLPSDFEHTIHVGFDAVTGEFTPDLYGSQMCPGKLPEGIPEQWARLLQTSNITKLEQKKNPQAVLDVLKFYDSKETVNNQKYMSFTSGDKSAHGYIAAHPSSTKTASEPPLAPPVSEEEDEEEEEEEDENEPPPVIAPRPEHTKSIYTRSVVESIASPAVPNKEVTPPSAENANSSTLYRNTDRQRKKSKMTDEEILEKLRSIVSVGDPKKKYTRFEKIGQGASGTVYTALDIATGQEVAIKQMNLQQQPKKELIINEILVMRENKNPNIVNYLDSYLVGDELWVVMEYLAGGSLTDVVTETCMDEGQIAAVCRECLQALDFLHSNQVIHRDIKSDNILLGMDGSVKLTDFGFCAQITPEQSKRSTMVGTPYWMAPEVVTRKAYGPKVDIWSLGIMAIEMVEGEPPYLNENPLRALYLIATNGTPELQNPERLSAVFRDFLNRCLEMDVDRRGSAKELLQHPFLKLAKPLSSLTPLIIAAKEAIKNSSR
In outline: as §1

The target of assay [5] is T5, EGFR (Homo sapiens, UniProt P00533).
T5 construct: purchased Reaction Biology Corp
T5 sequence (P00533 25-1210): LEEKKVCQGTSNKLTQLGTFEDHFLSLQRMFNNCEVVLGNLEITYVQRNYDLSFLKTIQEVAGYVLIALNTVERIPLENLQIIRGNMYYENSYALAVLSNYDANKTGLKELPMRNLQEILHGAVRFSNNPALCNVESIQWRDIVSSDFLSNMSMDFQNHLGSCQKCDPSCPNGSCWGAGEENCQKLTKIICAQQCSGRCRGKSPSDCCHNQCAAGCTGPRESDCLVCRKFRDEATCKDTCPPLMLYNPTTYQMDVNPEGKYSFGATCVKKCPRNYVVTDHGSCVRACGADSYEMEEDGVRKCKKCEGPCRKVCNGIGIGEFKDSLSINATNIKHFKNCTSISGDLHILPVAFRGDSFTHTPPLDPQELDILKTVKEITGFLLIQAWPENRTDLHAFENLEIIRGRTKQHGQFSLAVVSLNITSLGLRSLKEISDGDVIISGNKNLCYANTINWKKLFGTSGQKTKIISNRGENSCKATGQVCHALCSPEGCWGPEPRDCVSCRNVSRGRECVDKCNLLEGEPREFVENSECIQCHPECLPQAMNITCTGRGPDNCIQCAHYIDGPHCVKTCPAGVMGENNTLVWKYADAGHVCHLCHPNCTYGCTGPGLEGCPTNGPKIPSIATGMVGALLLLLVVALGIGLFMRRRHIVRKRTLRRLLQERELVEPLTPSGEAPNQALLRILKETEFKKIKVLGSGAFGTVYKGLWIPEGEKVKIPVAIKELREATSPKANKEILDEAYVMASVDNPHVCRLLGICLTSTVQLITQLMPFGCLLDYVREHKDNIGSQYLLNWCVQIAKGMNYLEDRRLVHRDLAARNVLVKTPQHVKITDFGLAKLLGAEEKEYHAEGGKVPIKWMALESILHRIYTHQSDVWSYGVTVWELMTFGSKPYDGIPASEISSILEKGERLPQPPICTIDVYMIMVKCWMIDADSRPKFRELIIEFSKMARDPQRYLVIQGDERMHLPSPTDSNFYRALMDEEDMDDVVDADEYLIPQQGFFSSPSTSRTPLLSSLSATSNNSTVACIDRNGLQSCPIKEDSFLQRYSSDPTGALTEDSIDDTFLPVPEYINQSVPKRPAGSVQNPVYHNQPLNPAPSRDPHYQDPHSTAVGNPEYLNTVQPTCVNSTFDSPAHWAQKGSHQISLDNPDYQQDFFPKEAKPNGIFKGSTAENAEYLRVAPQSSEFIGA
In outline:
as §1

Assay [6] deals with T6, PDGFRb (Homo sapiens, UniProt P09619).
T6 construct: purchased Reaction Biology Corp
T6 sequence (P09619 33-1106): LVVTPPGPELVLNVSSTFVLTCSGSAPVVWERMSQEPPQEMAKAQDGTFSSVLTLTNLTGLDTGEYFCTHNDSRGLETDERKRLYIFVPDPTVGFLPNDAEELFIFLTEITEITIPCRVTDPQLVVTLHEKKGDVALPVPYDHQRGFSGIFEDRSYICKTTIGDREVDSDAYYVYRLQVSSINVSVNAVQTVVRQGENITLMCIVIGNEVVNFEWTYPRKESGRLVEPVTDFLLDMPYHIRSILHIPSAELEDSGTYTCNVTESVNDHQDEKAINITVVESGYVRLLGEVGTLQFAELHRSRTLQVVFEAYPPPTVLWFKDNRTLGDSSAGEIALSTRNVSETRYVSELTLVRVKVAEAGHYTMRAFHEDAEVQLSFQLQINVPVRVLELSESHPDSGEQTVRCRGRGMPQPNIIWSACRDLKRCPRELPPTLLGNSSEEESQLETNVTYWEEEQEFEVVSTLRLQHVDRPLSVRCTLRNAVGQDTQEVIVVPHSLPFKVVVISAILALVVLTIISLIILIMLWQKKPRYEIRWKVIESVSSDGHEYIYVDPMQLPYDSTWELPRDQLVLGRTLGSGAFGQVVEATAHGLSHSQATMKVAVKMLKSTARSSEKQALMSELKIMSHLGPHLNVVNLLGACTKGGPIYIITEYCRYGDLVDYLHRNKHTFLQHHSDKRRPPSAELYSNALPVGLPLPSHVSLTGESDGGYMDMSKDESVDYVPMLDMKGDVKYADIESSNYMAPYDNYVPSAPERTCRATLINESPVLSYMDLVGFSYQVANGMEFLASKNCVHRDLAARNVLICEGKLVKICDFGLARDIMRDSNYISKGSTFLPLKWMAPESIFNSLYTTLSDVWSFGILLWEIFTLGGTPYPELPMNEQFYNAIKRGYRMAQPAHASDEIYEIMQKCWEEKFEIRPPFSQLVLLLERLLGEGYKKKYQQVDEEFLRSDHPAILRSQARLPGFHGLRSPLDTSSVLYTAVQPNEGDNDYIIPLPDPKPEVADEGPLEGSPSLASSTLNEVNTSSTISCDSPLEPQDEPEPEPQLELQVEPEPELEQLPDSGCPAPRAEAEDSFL
The procedure, abridged: as §1

Assay [7] has as its target T7, TAOK1 (Homo sapiens, UniProt Q7L7X3).
T7 construct: purchased Reaction Biology Corp
T7 sequence (Q7L7X3 1-1001): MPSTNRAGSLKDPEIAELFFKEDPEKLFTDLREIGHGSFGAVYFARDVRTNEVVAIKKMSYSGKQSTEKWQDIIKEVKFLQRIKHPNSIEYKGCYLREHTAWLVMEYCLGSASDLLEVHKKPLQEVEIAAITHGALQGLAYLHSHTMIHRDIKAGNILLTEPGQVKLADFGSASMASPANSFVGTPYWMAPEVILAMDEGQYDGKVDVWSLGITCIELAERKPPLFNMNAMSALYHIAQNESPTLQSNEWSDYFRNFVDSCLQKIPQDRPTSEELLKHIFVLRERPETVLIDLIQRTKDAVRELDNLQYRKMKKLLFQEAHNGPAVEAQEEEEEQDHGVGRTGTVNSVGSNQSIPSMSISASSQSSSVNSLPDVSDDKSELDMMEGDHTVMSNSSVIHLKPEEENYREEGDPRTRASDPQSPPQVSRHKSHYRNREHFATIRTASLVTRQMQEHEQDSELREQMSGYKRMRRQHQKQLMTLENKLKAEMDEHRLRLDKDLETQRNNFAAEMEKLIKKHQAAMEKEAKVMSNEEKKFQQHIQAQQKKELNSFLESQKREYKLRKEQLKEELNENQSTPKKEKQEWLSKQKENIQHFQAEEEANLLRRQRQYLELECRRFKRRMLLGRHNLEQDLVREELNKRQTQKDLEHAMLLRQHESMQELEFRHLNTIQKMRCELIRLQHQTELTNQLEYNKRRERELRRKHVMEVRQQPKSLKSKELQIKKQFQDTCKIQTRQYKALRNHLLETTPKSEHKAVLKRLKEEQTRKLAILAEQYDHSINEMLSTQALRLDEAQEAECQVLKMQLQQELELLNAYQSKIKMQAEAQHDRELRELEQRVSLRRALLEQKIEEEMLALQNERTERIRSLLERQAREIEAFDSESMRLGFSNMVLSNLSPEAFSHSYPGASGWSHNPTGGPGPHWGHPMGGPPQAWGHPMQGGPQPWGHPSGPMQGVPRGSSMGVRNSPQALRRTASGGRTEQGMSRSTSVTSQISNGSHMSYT
The procedure, abridged:
as §1

Setting [8] is: read-out: % Enzyme Activity (relative to DMSO controls) Run 1.
The mark [9] stands for this setting: read-out: % Enzyme Activity (relative to DMSO controls) Run 2.

Where two headings read alike, the source gives them in different places.

T2 sequence (Q15759 whole entry): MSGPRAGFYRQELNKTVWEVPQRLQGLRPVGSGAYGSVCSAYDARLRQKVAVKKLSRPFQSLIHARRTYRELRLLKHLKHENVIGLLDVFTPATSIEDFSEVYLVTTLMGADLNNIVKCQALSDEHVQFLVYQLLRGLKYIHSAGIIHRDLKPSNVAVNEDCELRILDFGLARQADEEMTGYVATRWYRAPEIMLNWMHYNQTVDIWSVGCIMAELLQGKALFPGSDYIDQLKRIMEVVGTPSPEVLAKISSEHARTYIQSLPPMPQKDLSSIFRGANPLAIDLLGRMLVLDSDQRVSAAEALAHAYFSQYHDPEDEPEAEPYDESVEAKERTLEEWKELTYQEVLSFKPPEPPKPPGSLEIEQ

As to `C=CC(=O)Nc1cccc(Nc2nc(Nc3ccc(OCCOC)c(F)c3)ncc2F)c1` [Compound 2], the inhibition at 3 µM in assay [1] is 9.77%; in assay [2], -1.41%; in assay [3], 12.9%; in assay [4] it was 6.46%; in assay [5] it was 80.3%; in assay [6] it was 52.4%. Besides, in assay [7], the inhibition at 3 µM was determined as 1.63%. Besides, the remaining activity at 3 µM was determined as 90.6% in assay [1] (setting [8]); 89.9% in assay [1] (setting [9]); 102% in assay [2] (setting [8]); 101% in assay [2] (setting [9]); 87.2% in assay [3] (setting [8]); 87% in assay [3] (setting [9]). The remaining activity at 3 µM in assay [4] (setting [8]) came to 91.9%; in assay [4] (setting [9]), 95.2%; in assay [5] (setting [8]), 19.2%; in assay [5] (setting [9]), 20.2%; in assay [6] (setting [8]), 47.7%; in assay [6] (setting [9]) it was 47.4%. The remaining activity at 3 µM was found to be 100% in assay [7] (setting [8]) and 96.2% in assay [7] (setting [9]).
